Our source for the IC50 values is patent publication US20250214977A1, “STAT6 INHIBITORS AND USES THEREOF” (Kymera Therapeutics, Inc., priority 2024, published 2025).

One may read the IC50 as the concentration at which inhibition is half-maximal.

This test has as its system Phosphorylation of STAT6 in human A549 cells. As to the kind of experiment: Phosphorylated STAT6 (pSTAT6) flow cytometry assay in human A549 cells. The test is classed as cell-based. The settings on record: read-out: STAT6 IL4 pSTAT6 assay in A549 cells: Average IC50. The text has this: Example 3. Phosphorylated STAT6 (pSTAT6) Flow Cytometry Assay in Human A549 Cells
Phosphorylation of STAT6 in human A549 cells was quantitatively measured using flow cytometry technology.

In the case of `COc1ccccc1-c1cc(C2=CCCN(C(=O)CCn3ccnn3)C2)c(F)c2[nH]c(C(=O)N3CCN(c4ncccc4OC4CC4)CC3)cc12` [Example I-336], the IC50 is less than 100 nM.

Turning to `COc1c(F)cc(F)cc1-c1cc(C2=CCCN(C(=O)CCn3ccnn3)C2)c(F)c2[nH]c(C(=O)N3CCN(C4CC4)CC3)cc12` [Example I-603], the IC50 was less than 100 nM.

Regarding `COc1ccccc1-c1cc(C2=CCCN(C(=O)CCn3ccnn3)C2)c(F)c2[nH]c(C(=O)N3CCN(c4ncn5c4CCCC5)CC3)cc12` [Example I-1034], the IC50 was less than 100 nM.

For the compound `COc1ccncc1-c1cc(C(=O)N2CCN(c3ncc(F)cc3OC)CC2)cc2cc(C3CCCN(C(=O)CCn4ccnn4)C3)[nH]c12` (centres unmarked) [Example I-1203], the IC50 is 1000 to 10000 nM.

Turning to `COc1cc(F)cnc1N1CCN(C(=O)c2cc3c(C4=CCOCC4)cc(C4=CCCN(C(=O)CCn5ccnn5)C4)c(F)c3[nH]2)CC1` [Example I-1156], the IC50 is less than 100 nM.

`CNc1ccc(-c2cc(C3=CCCN(C(=O)CCn4ccnn4)C3)c(F)c3[nH]c(C(=O)N4CCN(c5ncccc5OC)CC4)cc23)c(OC)c1` [Example I-580]: the IC50 is less than 100 nM.

On to `COc1ccccc1-c1cc(C2=CCCN(C(=O)CCn3ccnn3)C2)c(F)c2[nH]c(C(=O)N3CCN(c4ncc(F)cc4OC)CC3)cc12` [Example I-370], for which the IC50 was less than 100 nM.

For the compound `COc1ccccc1-c1cc(C2=CCCN(C(=O)CCn3ccnn3)C2)c(F)c2[nH]c(C(=O)N3CCN(C)CC3)cc12` [Example I-841], the IC50 is less than 100 nM.

With `COc1ccccc1-c1cc(C2=CCCN(C(=O)CCn3ccnn3)C2)c(F)c2[nH]c(C(=O)N(C)CCc3ccccn3)cc12` [Example I-986], the IC50 is less than 100 nM.

For `COc1ccncc1-c1cc(C2=CCCN(C(=O)CCn3ccnn3)C2)c(F)c2[nH]c(C(=O)N3CCN(c4ccc(F)c(OC)c4F)CC3)cc12` [Example I-492], the IC50 was more than 100000 nM.

As to `CCC1=C(c2cc(C3=CCCN(C(=O)CCn4ccnn4)C3)c(F)c3[nH]c(C(=O)N4CCN(c5ncc(F)cc5OC)CC4)cc23)CCCC1` [Example I-1172], the IC50 was in the range of 100 to 1000 nM.

Regarding `COc1cc(N2CCN(C(=O)c3cc4c(-c5ccccc5OC)cc(C5=CCCN(C(=O)CCn6ccnn6)C5)c(F)c4[nH]3)CC2)c2ccccc2c1` [Example I-957], the IC50 lay within 100 to 1000 nM.

Consider `COc1ccc(Cl)cc1-c1cc(C2=CCCN(C(=O)CCn3ccnn3)C2)cc2[nH]c(C(=O)N(C)C)cc12` [Example I-1058], for which the IC50 is less than 100 nM.

As to `COc1cc(N2CCN(C(=O)c3cc4c(-c5ccccc5OC)cc(C5=CCCN(C(=O)CCn6ccnn6)C5)c(F)c4[nH]3)CC2)c2ccnn2c1` [Example I-926], the IC50 is less than 100 nM.

With `CCOc1ccncc1-c1cc(C2=CCCN(C(=O)CCn3ccnn3)C2)c(F)c2[nH]c(C(=O)N3CCN(c4ncc(C)nc4OC)CC3)cc12` [Example I-1041], the IC50 was less than 100 nM.

As for `CC(=O)N1CCC=C(c2cc(-c3ccc(F)cc3O)c3cc(C(=O)N(C)C)[nH]c3c2F)C1` [Example I-891], the IC50 is 100 to 1000 nM.

For the compound `COc1cc(F)cnc1N1CCN(C(=O)c2cc3c(-c4cccc5c4OCCCO5)cc(C4=CCCN(C(=O)CCn5ccnn5)C4)c(F)c3[nH]2)CC1` [Example I-678], the IC50 is less than 100 nM.

In the case of `CCc1cnccc1-c1cc(C2=CCCN(C(=O)CCn3ccnn3)C2)c(F)c2[nH]c(C(=O)N3CCN(c4ncc(F)cc4OC)CC3)cc12` [Example I-689], the IC50 was less than 100 nM.

On to `COc1cc(F)cnc1N1CCN(C(=O)c2cc3c(-c4cccc(C(C)(C)C#N)c4)cc(C4=CCCN(C(=O)CCn5ccnn5)C4)c(F)c3[nH]2)CC1` [Example I-682], for which the IC50 is less than 100 nM.

As for `COc1ccccc1-c1cc(C2=CCCN(C(=O)CCn3ccnn3)C2)c(F)c2[nH]c(C(=O)N3CCN(Cc4ccc(Br)cc4)CC3)cc12` [Example I-852], the IC50 is 100 to 1000 nM.

With `COc1cc(F)cnc1N1CCN(C(=O)c2cc3c(-c4ccc(CN5CCOCC5)cc4)cc(C4=CCCN(C(=O)CCn5ccnn5)C4)c(F)c3[nH]2)CC1` [Example I-1122], the IC50 was less than 100 nM.

For the compound `CCc1ccccc1-c1cc(C2=CCCN(C(=O)CCn3ccnn3)C2)c(F)c2[nH]c(C(=O)N3CCN(c4ncc(F)cc4OC)CC3)cc12` [Example I-665], the half-maximal inhibitory concentration (IC50) was less than 100 nM.

In the case of `CN(C)C(=O)c1cc2cc(C3=CCCN(C(=O)CCc4nncs4)C3)ccc2o1` [Example I-824], the IC50 is 100 to 1000 nM.

Regarding `COc1ccccc1-c1cc(C2=CCCN(C(=O)CCn3ccnn3)C2)c(F)c2[nH]c(C(=O)N3CCN(c4nc5ccccc5c5ccccc45)CC3)cc12` [Example I-916], the IC50 lay in the range of 100 to 1000 nM.

`COc1cccnc1N1CCN(C(=O)c2cc3c(-c4cccc(F)c4OC)cc(C4=CCCN(C(=O)CCn5ccnn5)C4)c(F)c3[nH]2)C(C)C1` (centres unmarked) [Example I-973]: the IC50 was 100 to 1000 nM.

Turning to `CCC1CCCCC1c1cc(C2=CCCN(C(=O)CCn3ccnn3)C2)c(F)c2[nH]c(C(=O)N3CCN(c4ncc(F)cc4OC)CC3)cc12` (single isomer, unassigned) [Example I-1174], the IC50 lay within 1000 to 10000 nM.

For `COc1cccnc1N1CCN(C(=O)c2cc3c(-c4cnc5ccccc5c4OC)cc(C4=CCCN(C(=O)CCn5ccnn5)C4)c(F)c3[nH]2)CC1` [Example I-402], the IC50 was more than 100000 nM.

In the case of `COc1ccccc1-c1cc(C2=CCCN(C(=O)CCn3ccnn3)C2)c(F)c2[nH]c(C(=O)N3CCN(c4ccc(F)c(F)c4F)CC3)cc12` [Example I-769], the IC50 was less than 100 nM.

With `COc1ncccc1-c1cc(C2=CCCN(C(C)=O)C2)c(F)c2[nH]c(C(=O)N(C)C)cc12` [Example I-879], the IC50 is less than 100 nM.

As to `COc1cc(F)cnc1N1CCN(C(=O)c2cc3c(C4=CCN(c5ccccn5)CC4)cc(C4=CCCN(C(=O)CCn5ccnn5)C4)c(F)c3[nH]2)CC1` [Example I-1117], the IC50 is less than 100 nM.

With `COc1ccncc1-c1cc(C2=CCCN(C(=O)CCn3ccnn3)C2)c(F)c2[nH]c(C(=O)N3CCN(c4ccccc4)CC3)cc12` [Example I-400], the IC50 is more than 100000 nM.

Take `COc1cc(F)c(F)cc1-c1cc(C2=CCCN(C(=O)CCn3ccnn3)C2)c(F)c2[nH]c(C(=O)N3CCN(c4ncccc4OC)CC3)cc12` [Example I-559]: the IC50 is less than 100 nM.

In the case of `COc1ccccc1-c1cc(C2=CCCN(C(=O)CCn3ccnn3)C2)c(F)c2[nH]c(C(=O)N3CCN(c4cc(OC)c5ccnn5c4)CC3)cc12` [Example I-917], the IC50 is less than 100 nM.

With `COc1ccccc1-c1cc(C2=CCCN(C(=O)CCn3ccnn3)C2)c(F)c2[nH]c(C(=O)N3Cc4c(C)nn(C)c4C3)cc12` [Example I-509], the IC50 was less than 100 nM.

As to `CC(=O)N1CCC=C(c2cc(-c3ccccc3C)c3cc(C(=O)N(C)C)[nH]c3c2F)C1` [Example I-890], the IC50 was in the range of 100 to 1000 nM.

For the compound `COc1ccccc1-c1cc(C2=CCCN(C(=O)CCn3ccnn3)C2)c(F)c2[nH]c(C(=O)N3CCN(c4ncccc4OC(C)C)CC3)cc12` [Example I-332], the IC50 is less than 100 nM.

Regarding `COc1ccccc1-c1cc(C2=CCCN(C(=O)CCn3ccnn3)C2)c(F)c2[nH]c(C(=O)N3CCN(c4c(OC)cccc4OC)CC3)cc12` [Example I-350], the IC50 is less than 100 nM.

For the compound `COc1ccccc1-c1cc(C2=CCCN(C(=O)CCn3ccnn3)C2)c(F)c2[nH]c(C(=O)N3CCN(c4cc(C)c5ncnn5c4)CC3)cc12` [Example I-909], the IC50 was less than 100 nM.

On to `COc1cc(C)c(-c2cc(C3=CCCN(C(=O)CCn4ccnn4)C3)cc3cc(C(=O)N(C)C)oc23)cc1C` [Example I-1078], for which the IC50 was less than 100 nM.

`CC(=O)N1CCC=C(c2cc(-c3cncc4ccccc34)c3cc(C(=O)N(C)C)[nH]c3c2F)C1` [Example I-1098]: the IC50 was less than 100 nM.

On to `COc1ccccc1-c1cc(C2=CCCN(C(=O)[C@@H]3Cc4ccccc4CN3C=O)C2)cc2cc(C(=O)N(C)C)oc12` (single isomer, unassigned) [Example I-805], for which the IC50 is 10000 to 100000 nM.

For `COc1ccncc1-c1cc(C2=CCCN(C(=O)CCn3ccnn3)C2)c(F)c2[nH]c(C(=O)N3CCN(c4nnccc4OC)CC3)cc12` [Example I-467], the IC50 was less than 100 nM.

For the compound `CC(=O)N1CCC=C(c2cc(-c3ccc4cncnc4c3)c3cc(C(=O)N(C)C)[nH]c3c2F)C1` [Example I-887], the IC50 fell in the range of 100 to 1000 nM.

In the case of `COc1cc(F)cnc1N1CCN(C(=O)c2cc3c(C4=CCC5(CC4)CC5)cc(C4=CCCN(C(=O)CCn5ccnn5)C4)c(F)c3[nH]2)CC1` [Example I-1159], the IC50 was in the range of 100 to 1000 nM.

As to `COc1cc(F)ccc1-c1cc(C2=CCCN(C(=O)CCn3ccnn3)C2)c(F)c2[nH]c(C(=O)N3CCN(C4CC4)CC3)cc12` [Example I-588], the half-inhibitory concentration (IC50) is less than 100 nM.

In the case of `COc1ccccc1-c1cc(C2=CCCN(C(=O)CCn3ccnn3)C2)c(F)c2[nH]c(C(=O)N3CCN(c4ncccc4OC)CC3)cc12` [Example I-326], the IC50 fell in the range of 10000 to 100000 nM.

With `CN(C)C(=O)c1cc2cc(C3=CCCN(C(=O)CCn4ccnn4)C3)cc(-c3ccc(F)cc3O)c2o1` [Example I-1074], the IC50 is less than 100 nM.

With `COc1cnccc1-c1cc(C2=CCCN(C(=O)CCn3ccnn3)C2)c(F)c2[nH]c(C(=O)N3CCN(c4ncc(C(F)(F)F)cc4OC)CC3)cc12` [Example I-435], the IC50 is less than 100 nM.

As for `COc1ccccc1-c1cc(C2=CCCN(C(=O)CCn3ccnn3)C2)c(F)c2[nH]c(C(=O)N3CC=C(C4CC4)CC3)cc12` [Example I-511], the IC50 is less than 100 nM.

Take `COc1ccccc1N1CCN(C(=O)c2cc3c(-c4cnccc4OCF)cc(C4=CCCN(C(=O)CCn5ccnn5)C4)c(F)c3[nH]2)CC1` [Example I-405]: the concentration for half-maximal inhibition (IC50) is more than 100000 nM.

Take `COc1ccccc1-c1cc(C2=CCCN(C(=O)CCn3ccnn3)C2)c(F)c2[nH]c(C(=O)N3CCN(c4cncc5cccnc45)CC3)cc12` [Example I-954]: the IC50 is less than 100 nM.

`COc1ccccc1-c1cc(C2CCCN(C(=O)CCn3ccnn3)C2)c(F)c2[nH]c(C(=O)N3CCN(c4ncccc4OC)CC3)cc12` (centres unmarked) [Example I-348]: the IC50 is less than 100 nM.

On to `COc1ccccc1-c1cc(C2=CCCN(C(=O)CCn3ccnn3)C2)c(F)c2[nH]c(C(=O)N3CCN(c4c(F)cccc4OC)CC3)cc12` [Example I-367], for which the IC50 is less than 100 nM.
